Assay results as given in PubChem BioAssay (NCI).
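Protocol summary: plate cells (96-well), add compound at 5 concentrations, incubate 48 h, interpolate endpoints linearly. TGI: total growth inhibition.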 *1 amine or outer side, *2 acyl side, *3 side chain or, on linkers, in order; H or OH if unused. Where a SMILES comes first, the peptide text is derived from it. [ ]: non-standard residue; d: D form. The star is where a group is joined. X31 = CC(=O)N(C)SCC(N[*:1])C(=O)[*:2]; X47 = CC(=O)N(C)SCC(N*)/C(O)=N\O; Cbz = O=C(OCc1ccccc1)*; Bn = c1ccc(C*)cc1; For = O=C*

Legend:
Assay in all cases: NCI tumour cell line growth inhibition, 48 h
HCT-116 colon = system: HCT-116 colon
MCF7 breast = system: MCF7 breast
DU-145 prostate = system: DU-145 prostate
HOP-92 NSCLC = system: HOP-92 NSCLC
PC-3 prostate = system: PC-3 prostate
COLO 205 colon = system: COLO 205 colon
HS 578T breast = system: HS 578T breast
HOP-62 NSCLC = system: HOP-62 NSCLC
HT29 colon = system: HT29 colon
OVCAR-5 ovarian = system: OVCAR-5 ovarian
NCI-H460 lung = system: NCI-H460 lung
HCT-15 colon = system: HCT-15 colon
UO-31 renal = system: UO-31 renal
KM12 colon = system: KM12 colon
UACC-257 melanoma = system: UACC-257 melanoma
SF-295 CNS = system: SF-295 CNS
SNB-75 CNS = system: SNB-75 CNS
CAKI-1 renal = system: CAKI-1 renal
A549 NSCLC = system: A549 NSCLC
OVCAR-3 ovarian = system: OVCAR-3 ovarian

| Compound | TGI (HCT-116 colon) [µM] | TGI (MCF7 breast) [µM] | TGI (DU-145 prostate) [µM] | TGI (HOP-92 NSCLC) [µM] | TGI (PC-3 prostate) [µM] | TGI (COLO 205 colon) [µM] | TGI (HS 578T breast) [µM] | TGI (HOP-62 NSCLC) [µM] | TGI (HT29 colon) [µM] | TGI (OVCAR-5 ovarian) [µM] | TGI (NCI-H460 lung) [µM] | TGI (HCT-15 colon) [µM] | TGI (UO-31 renal) [µM] | TGI (KM12 colon) [µM] | TGI (UACC-257 melanoma) [µM] | TGI (SF-295 CNS) [µM] | TGI (SNB-75 CNS) [µM] | TGI (CAKI-1 renal) [µM] | TGI (A549 NSCLC) [µM] | TGI (OVCAR-3 ovarian) [µM] |
| --- | --- | --- | --- | --- | --- | --- | --- | --- | --- | --- | --- | --- | --- | --- | --- | --- | --- | --- | --- | --- |
| C=CCOC(=O)N1[C@H]2C#C/C=C\C#C[C@]3(O)C(=O)C[C@H](C)[C@]24O[C@]43C2=CC(=O)C=CC21OC (stereo partly drawn) | 44.6 | > 100 | > 100 | > 100 | > 100 | 38.8 | > 100 | > 100 | 75.2 | > 100 | 47.8 | > 100 | > 100 | 67.7 | 59 | > 100 | 82.5 | > 100 | > 100 | – |
| NC(Cc1ccc(S(=O)(=O)O)cc1)C(=O)NC(CCCCNC(=O)NCCCCC(NC(=O)C(N)Cc1ccc(S(=O)(=O)O)cc1)C(=O)NC(Cc1ccc(S(=O)(=O)O)cc1)C(=O)O)C(=O)NC(Cc1ccc(S(=O)(=O)O)cc1)C(=O)O (stereo not drawn) | > 100 | > 100 | > 100 | – | > 100 | > 100 | > 100 | > 100 | > 100 | > 100 | > 100 | > 100 | > 100 | > 100 | > 100 | > 100 | > 100 | > 100 | > 100 | > 100 |
| O=c1c2cc(-c3ccccc3)sc2nc2n1N=C(c1ccccc1)CS2 | > 100 | 96.2 | > 100 | 34.6 | > 100 | > 100 | 49.4 | 23 | – | > 100 | > 100 | > 100 | > 100 | > 100 | 91.5 | 44.2 | 89.1 | 34.3 | > 100 | 49.1 |
| CCCCCC(C)(C)CCC(=O)OC1OC(COC2OC(COC3OC(CO)C(O)C(O)C3O)C(O)C(O)C2O)C(O)C(O)C1O (stereo not drawn) | > 100 | > 100 | > 100 | > 100 | > 100 | > 100 | > 100 | > 100 | > 100 | > 100 | > 100 | > 100 | > 100 | > 100 | > 100 | > 100 | – | – | > 100 | > 100 |
| Cc1cc(N(CCC#N)CCC#N)ccc1/C(N=Nc1ccc(Cl)cc1)=N\NC(=O)c1cc(Cl)ccc1O | > 100 | > 100 | > 100 | – | > 100 | > 100 | 56.2 | 56.6 | > 100 | > 100 | > 100 | > 100 | > 100 | > 100 | > 100 | 91.4 | 84.4 | > 100 | > 100 | 66.2 |
| COc1ccc2nc3cc(Cl)ccc3c(NCCCN(Cc3cc(OC)c(OC)c(OC)c3)Cc3cc(OC)c(OC)c(OC)c3)c2c1 | 1.7 | 30.4 | 27.3 | 23.7 | 30.6 | 23.5 | 36.6 | 24.4 | 16.6 | 27.9 | 23.6 | – | 26.1 | 28.3 | 28.8 | 12.1 | – | 30.3 | 30.7 | 34.6 |
| C=C(C)C(=O)O[C@H]1C/C(CO)=C/CCC(=C)C(OC(C)=O)[C@H]2OC(=O)C(=C)[C@H]12 (stereo partly drawn) | 13.7 | 22.3 | 37.4 | – | 58.9 | 15.7 | > 100 | 73.8 | 21.7 | 88.7 | 41.7 | 33.6 | 17.7 | 33.3 | 24.8 | 91.4 | 9.12 | 21.5 | 55.8 | 18.7 |
| COC(=O)CCc1cc(OC)c(O)c(C(Cc2ccc(OC)c(OC)c2)C(=O)OC)c1 (stereo not drawn) | > 100 | > 100 | > 100 | > 100 | > 100 | > 100 | > 100 | > 100 | > 100 | > 100 | > 100 | > 100 | > 100 | > 100 | > 100 | > 100 | > 100 | – | > 100 | > 100 |
| O=C(Nc1nnc(-c2ccccc2)o1)C(SC(=S)N1CCCCC1)c1ccccc1 (stereo not drawn) | 32.1 | > 100 | 71.6 | – | 96.2 | > 100 | > 100 | 92.1 | 70 | 82.9 | 34.6 | 29.1 | 26.9 | > 100 | > 100 | > 100 | > 100 | 77.8 | 49.5 | 43.4 |
| O=C(OCc1ccccc1CN1CCOCC1)c1cccc(Br)c1 | > 100 | > 100 | > 100 | > 100 | > 100 | > 100 | > 100 | > 100 | 29.5 | > 100 | > 100 | > 100 | > 100 | – | 63.4 | – | > 100 | 64.6 | > 100 | 44.3 |
| COc1cc2c(/C=C3/C(=O)N(C)c4ccccc43)c(Cl)[nH]c2cc1C | 7.02 | > 23.5 | 3.44 | > 50.1 | 13 | 0.579 | > 100 | 3.56 | – | > 57.2 | 1.36 | 6.34 | > 58.3 | – | 97.6 | 3.44 | 46.2 | > 52.8 | 17 | 0.929 |
| O=C(Nn1c(-c2ccccc2)nc2ccccc2c1=O)c1ccc(CS)cc1 | > 100 | > 100 | > 100 | > 100 | > 100 | > 100 | > 100 | > 100 | > 100 | > 100 | > 100 | – | > 100 | > 100 | > 100 | > 100 | > 100 | – | > 100 | > 100 |
| COc1cc(C2SCC(=O)N2c2cc(Cl)c(Cl)cc2Cl)cc(OC)c1OC (stereo not drawn) | > 100 | > 100 | > 100 | > 100 | > 100 | > 100 | > 100 | – | > 100 | > 100 | > 100 | > 100 | > 100 | > 100 | > 100 | > 100 | – | > 100 | > 100 | > 100 |
| Cc1ccc(C2=Nc3cc(C)c(Cl)cc3S(=O)(=O)NN2)cc1 | > 100 | > 100 | > 100 | > 100 | > 100 | > 100 | > 100 | > 100 | > 100 | – | > 100 | > 100 | > 100 | > 100 | > 100 | > 100 | > 100 | 75.7 | > 100 | > 100 |
| COc1ccccc1/C=C/C1=NN(c2cccc(S(=O)(=O)O)c2)C2(C1)SCC(=O)N2c1nc2ccccc2s1 (stereo not drawn) | > 100 | > 100 | > 100 | > 100 | > 100 | > 100 | > 100 | – | > 100 | > 100 | > 100 | > 100 | > 100 | > 100 | > 100 | – | > 100 | > 100 | > 100 | – |
| CN(C)c1ccc(/C=c2/c3ccccc3n3c2c2ccccc2[n+]3C)cc1 | 2.74 | 5.46 | 4.19 | 1.92 | 1.54 | 0.488 | 4.42 | 16.2 | – | 7.43 | > 38.2 | 2.41 | 3.9 | 10.7 | 1.51 | 13.1 | 8.29 | 8.53 | 19.7 | 4.42 |
| CC(=O)Nc1ccc(Nc2cc(=O)[nH]c(=O)[nH]2)cc1 | > 100 | > 100 | > 100 | > 100 | > 100 | > 100 | > 100 | > 100 | > 100 | > 100 | > 100 | > 100 | > 100 | > 100 | > 100 | > 100 | > 100 | – | > 100 | > 100 |
| CC(C)(C)c1cc(C(=O)Nc2cc(Br)c(Br)cc2S(N)(=O)=O)cc(C(C)(C)C)c1O | 20.5 | 18.8 | 29.2 | – | 22.9 | 19.1 | 30.5 | 35.3 | 16.2 | 24.9 | – | 16.8 | 24.7 | 36.4 | 33.1 | 27.7 | 21.5 | 22.8 | 21.3 | 21.1 |
| Cc1ccc2c3c1O[C@H]1c4[nH]c5ccccc5c4C[C@@]4(O)[C@@H](C2)N(C)CC[C@]314 | 31 | 30 | 39 | 23.2 | 33.6 | 30.2 | 21.5 | – | 25.6 | 38.2 | – | 32.5 | 27.1 | 33.8 | 28.2 | – | – | 34.4 | 32.9 | – |
| CC(C)(C)c1cc(CC2C(=O)c3ccccc3C2=O)cc(C(C)(C)C)c1O | 14.1 | > 100 | 14.7 | 1.07 | 10.3 | 30.7 | 39.8 | 9.08 | 13.8 | 57.6 | 43.3 | 14.8 | 10.5 | 19.1 | 15.4 | 12.4 | – | 20.4 | 87.2 | 9.53 |
| CCC1=NC(N/N=C/c2ccco2)=N/C1=C\c1ccccc1O | 56.8 | > 100 | > 100 | > 100 | > 100 | > 100 | > 100 | > 100 | > 100 | > 100 | 73.6 | 42.7 | > 100 | > 100 | > 100 | > 100 | – | > 100 | > 100 | – |
| CC(=O)N(C)SCC(NC(=O)C(Cc1ccccc1)NC(=O)OCc1ccccc1)C(=O)NC(Cc1ccccc1)C(=O)NC(Cc1cn(C=O)c2ccccc12)C(=O)NC(CCCCNC(=O)OCc1ccccc1)C(=O)NC(C(=O)NC(CSN(C)C(C)=O)/C(O)=N\O)C(C)OCc1ccccc1 (stereo not drawn) (Cbz-F[X31]FW(For)K(Cbz)T(Bn)-X47; configuration not given here) | > 100 | > 100 | > 100 | > 100 | > 100 | > 100 | > 100 | > 100 | > 100 | > 100 | > 100 | > 100 | > 100 | > 100 | > 100 | > 100 | > 100 | – | > 100 | > 100 |
| CCOC(=O)C1(C(N)=O)C(=O)c2ccncc2C1=O (stereo not drawn) | > 100 | > 100 | > 100 | > 100 | > 100 | > 100 | > 100 | – | > 100 | > 100 | > 100 | > 100 | > 100 | > 100 | > 100 | > 100 | > 100 | > 100 | > 100 | > 100 |
